Laboratory results taken from ChEMBL document CHEMBL1201862, “PubChem BioAssay data set” (2004).
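Briefly, cells in 96-well plates were exposed to five compound concentrations for 48 h, and endpoints were estimated by linear interpolation. The concentration for 50% growth inhibition is given as GI50.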 Activity calls are given as the source filed them. Rule as the data show it: active = GI50 up to about 1.1 µM and inactive = higher.

Key:
Assay in all cases: DTP human tumour cell line panel, 48 h
[1] = test system: KM12
[2] = test system: PC-3
[3] = test system: A549
[4] = test system: SF-268
[5] = test system: MDA-MB-231
[6] = test system: CAKI-1
[7] = test system: 786-0
[8] = test system: SNB-75
[9] = test system: BT-549
[10] = test system: MOLT-4
[11] = test system: SN12C
[12] = test system: COLO 205
[13] = test system: SF-295
[14] = test system: ACHN
[15] = test system: HL-60
[16] = test system: UACC-257
[17] = test system: OVCAR-3
[18] = test system: SR
[19] = test system: MCF7
[20] = test system: HOP-92

Measured: GI50

Cc1ccc(F)c2[nH]c(-c3ccccc3)cc(=O)c12
inactive: [1] 3.03 µM | [2] 8.81 µM | [3] 4.97 µM | [4] 14.5 µM | [5] 20.9 µM | [6] > 100 µM | [7] 2.83 µM | [8] 6.18 µM | [9] 7.06 µM | [10] 3.94 µM | [11] 7.1 µM | [12] 6.81 µM | [13] 6.47 µM | [14] 8.77 µM | [15] 3.39 µM | [16] 58.5 µM | [17] 6.28 µM | [18] 2.99 µM | [19] 1.18 µM

CCOC(=O)N/N=C(\CC)OCC
inactive: [1] > 100 µM | [2] > 100 µM | [3] > 100 µM | [4] > 100 µM | [5] > 100 µM | [6] > 100 µM | [7] > 100 µM | [8] > 100 µM | [9] > 100 µM | [10] > 100 µM | [11] > 100 µM | [12] > 100 µM | [13] > 100 µM | [14] > 100 µM | [15] > 100 µM | [16] > 100 µM | [17] > 100 µM | [18] > 100 µM | [19] > 100 µM

Clc1ccc(Cc2nc3cc(Cl)ccc3o2)cc1
inactive: [1] 29.7 µM | [2] 32.4 µM | [3] 41.5 µM | [4] 43 µM | [5] 31.7 µM | [6] 30.6 µM | [7] 34.4 µM | [9] 27.9 µM | [10] 26.5 µM | [11] 40.1 µM | [12] 29.8 µM | [13] 22.8 µM | [14] 35.6 µM | [15] 30.4 µM | [16] 33 µM | [17] 22.4 µM | [20] 31.6 µM | [18] 30.7 µM | [19] 38.5 µM

O=C(O)Cc1ccc(Oc2nc3ccccc3nc2-c2ccccc2)cc1
inactive: [1] 60.5 µM | [2] 56 µM | [3] 57.8 µM | [4] 44.5 µM | [5] 58.1 µM | [6] 63.5 µM | [7] > 100 µM | [8] > 100 µM | [9] 37 µM | [10] 86.9 µM | [11] 70 µM | [12] 48.4 µM | [13] 79.4 µM | [14] 51.4 µM | [15] 67.8 µM | [16] > 100 µM | [17] 32.6 µM | [18] 4.22 µM | [19] 56.5 µM

NC(=O)c1c2c(n3ccccc13)C(=O)c1ccccc1C2=O
inactive: [1] > 100 µM | [2] > 100 µM | [4] > 100 µM | [5] 38.5 µM | [6] > 100 µM | [7] 71.8 µM | [8] 37.6 µM | [9] > 100 µM | [10] > 100 µM | [12] 39.6 µM | [13] 29 µM | [14] > 100 µM | [15] > 100 µM | [16] 32.1 µM | [20] 31 µM | [18] > 100 µM | [19] > 100 µM

CCOC(=O)N1N(c2ccccc2)C(=O)C1(c1ccccc1)c1ccccc1
inactive: [1] 73.5 µM | [2] 19.2 µM | [3] > 100 µM | [4] > 100 µM | [5] > 100 µM | [6] > 100 µM | [7] > 100 µM | [9] > 100 µM | [10] 20.1 µM | [11] > 100 µM | [12] 80.9 µM | [13] 99.1 µM | [14] > 100 µM | [15] 8.3 µM | [16] > 100 µM | [17] 40.5 µM | [20] 70.3 µM | [18] 87.5 µM | [19] 25.9 µM

CN(C(=O)C12C3C4(C(=O)O)C1(C(=O)N(C)C(C)(C)C)C1C2(C(=O)O)C3(C(=O)N(C)C(C)(C)C)C14C(=O)N(C)C(C)(C)C)C(C)(C)C (stereo unspecified)
inactive: [1] > 100 µM | [2] > 100 µM | [3] > 100 µM | [4] > 100 µM | [5] > 100 µM | [6] > 100 µM | [7] > 100 µM | [9] > 100 µM | [10] > 100 µM | [11] > 100 µM | [12] > 100 µM | [13] > 100 µM | [14] > 100 µM | [15] > 100 µM | [16] > 100 µM | [17] > 100 µM | [20] > 100 µM | [18] > 100 µM | [19] > 100 µM
